According to ChEMBL document CHEMBL3826966, “A chromatography-free isolation of rohitukine from leaves of Dysoxylum binectariferum: Evaluation for in vitro cytotoxicity, Cdk inhibition and physicochemical properties” (Bioorg Med Chem Lett, 2016):
In brackets after ≈: the same amount, converted by molar mass.

Tests used:
T47D = test: Cytotoxicity against human T47D cells assessed as cell growth inhibition after 48 hrs by MTT assay; format: functional
[1] = biological target: 3-phosphoinositide-dependent protein kinase 1 (Homo sapiens) (UniProt O15530); test: Inhibition of human PDK1 (52 to 556 residues) assessed as remaining enzyme activity at 50 uM after 30 mins by 33P-ATP filter-binding assay
[2] = biological target: Tyrosine-protein kinase ABL1 (Homo sapiens) (UniProt P00519); test: Inhibition of human ABL (118 to 535 residues) assessed as remaining enzyme activity at 50 uM after 30 mins by 33P-ATP filter-binding assay
[3] = biological target: Mitogen-activated protein kinase kinase kinase 1 (Homo sapiens) (UniProt Q13233); test: Inhibition of human MEKK1 (877 to1563 residues) assessed as remaining enzyme activity at 50 uM after 30 mins by 33P-ATP filter-binding assay
[4] = biological target: Serine/threonine-protein kinase STK11 (Homo sapiens) (UniProt Q15831); test: Inhibition of human LKB1 (1 to 433 residues) assessed as remaining enzyme activity at 50 uM after 30 mins by 33P-ATP filter-binding assay
[5] = biological target: Tau-tubulin kinase 1 (Homo sapiens) (UniProt Q5TCY1); test: Inhibition of human TTBK1 (1 to 1321 residues) assessed as remaining enzyme activity at 50 uM after 30 mins by 33P-ATP filter-binding assay
[6] = biological target: CDK9/cyclin T1 (Homo sapiens) (UniProt O60563+P50750); test: Inhibition of human Cdk9/T1 using YSPTSPSYSPTSPSYSPTSPKKK peptide as substrate at 0.5 uM after 30 mins by 33P-ATP filter-binding assay; format: protein-complex assay
[7] = biological target: Eukaryotic elongation factor 2 kinase (Homo sapiens) (UniProt O00418); test: Inhibition of human EF2K (2 to 725 residues) assessed as remaining enzyme activity at 50 uM after 30 mins by 33P-ATP filter-binding assay
MAP4K2 = test: Inhibition of human GCK (2 to 812 residues) assessed as remaining enzyme activity at 50 uM after 30 mins by 33P-ATP filter-binding assay
[8] = biological target: Serine/threonine-protein kinase D1 (Homo sapiens) (UniProt Q15139); test: Inhibition of human PKD1 (2 to 912 residues) assessed as remaining enzyme activity at 50 uM after 30 mins by 33P-ATP filter-binding assay
[9] = Thermodynamic equilibrium solubility in stimulated gastric fluid at 120 ug/ml at pH 1.2 by HPLC analysis; format: ADME; conditions: simulated gastric fluid, read-out: Therm_solubility
[10] = Cytotoxicity against human DU145 cells assessed as cell growth inhibition after 48 hrs by MTT assay; format: functional; conditions: DU-145, 48 h
[11] = biological target: Insulin receptor-related protein (Homo sapiens) (UniProt P14616); test: Inhibition of human IRR (944 to 1236 residues) assessed as remaining enzyme activity at 50 uM after 30 mins by 33P-ATP filter-binding assay
[12] = Cytotoxicity against human SF539 cells assessed as cell growth inhibition after 48 hrs by MTT assay; format: functional; conditions: SF-539, 48 h
[13] = biological target: Dual specificity mitogen-activated protein kinase kinase 2 (Homo sapiens) (UniProt P36507); test: Inhibition of human MKK2 (2 to 400 residues) assessed as remaining enzyme activity at 50 uM after 30 mins by 33P-ATP filter-binding assay
[14] = biological target: MAP/microtubule affinity-regulating kinase 4 (Homo sapiens) (UniProt Q96L34); test: Inhibition of human MARK4 (2 to 752 residues) assessed as remaining enzyme activity at 50 uM after 30 mins by 33P-ATP filter-binding assay
[15] = biological target: Casein kinase I isoform delta (Homo sapiens) (UniProt P48730); test: Inhibition of human CK1delta (1 to 415 residues) assessed as remaining enzyme activity at 50 uM after 30 mins by 33P-ATP filter-binding assay
[16] = biological target: Mitogen-activated protein kinase 13 (Homo sapiens) (UniProt O15264); test: Inhibition of human p38delta MAPK (1 to 365 residues) assessed as remaining enzyme activity at 50 uM after 30 mins by 33P-ATP filter-binding assay
[17] = biological target: Testis-specific serine/threonine-protein kinase 1 (Homo sapiens) (UniProt Q9BXA7); test: Inhibition of human TSSK1 (1 to 367 residues) assessed as remaining enzyme activity at 50 uM after 30 mins by 33P-ATP filter-binding assay
[18] = biological target: Tyrosine-protein kinase Yes (Homo sapiens) (UniProt P07947); test: Inhibition of human YES1 (1 to 543 residues) assessed as remaining enzyme activity at 50 uM after 30 mins by 33P-ATP filter-binding assay
[19] = biological target: Death-associated protein kinase 1 (Homo sapiens) (UniProt P53355); test: Inhibition of human DAPK1 (1 to 363) assessed as remaining enzyme activity at 50 uM after 30 mins by 33P-ATP filter-binding assay
[20] = Cell cycle arrest in human HL60 cells assessed as accumulation at G1 phase at 5 uM (reference value: 59 %); format: functional, cell-based; conditions: HL-60
[21] = biological target: Serine/threonine-protein kinase BRSK1 (Homo sapiens) (UniProt Q8TDC3); test: Inhibition of human BRSK1 (2 to 778 residues) assessed as remaining enzyme activity at 50 uM after 30 mins by 33P-ATP filter-binding assay
[22] = Cytotoxicity against human SF295 cells assessed as cell growth inhibition after 48 hrs by MTT assay; format: functional; conditions: SF-295, 48 h
[23] = biological target: Aurora kinase B (Homo sapiens) (UniProt Q96GD4); test: Inhibition of human Aurora B (1 to 344 residues) assessed as remaining enzyme activity at 50 uM after 30 mins by 33P-ATP filter-binding assay

3-phosphoinositide-dependent protein kinase 1 (Homo sapiens), sequence (O15530 whole entry, the tested form may be a part): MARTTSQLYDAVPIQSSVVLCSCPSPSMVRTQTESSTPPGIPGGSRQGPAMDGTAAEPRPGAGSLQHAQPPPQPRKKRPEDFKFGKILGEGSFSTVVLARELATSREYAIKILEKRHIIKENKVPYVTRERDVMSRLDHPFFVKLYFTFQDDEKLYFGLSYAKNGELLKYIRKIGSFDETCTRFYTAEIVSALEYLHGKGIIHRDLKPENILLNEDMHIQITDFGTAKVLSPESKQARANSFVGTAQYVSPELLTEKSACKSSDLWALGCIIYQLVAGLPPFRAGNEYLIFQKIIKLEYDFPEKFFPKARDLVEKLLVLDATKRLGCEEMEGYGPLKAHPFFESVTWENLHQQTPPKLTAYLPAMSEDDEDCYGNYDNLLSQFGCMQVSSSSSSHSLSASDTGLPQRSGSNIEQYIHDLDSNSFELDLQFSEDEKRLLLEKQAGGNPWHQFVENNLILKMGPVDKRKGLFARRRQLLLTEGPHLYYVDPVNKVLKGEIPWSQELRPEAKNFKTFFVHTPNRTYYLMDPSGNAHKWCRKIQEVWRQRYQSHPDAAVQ
Mitogen-activated protein kinase kinase kinase 1 (Homo sapiens), sequence (Q13233 whole entry, the tested form may be a part): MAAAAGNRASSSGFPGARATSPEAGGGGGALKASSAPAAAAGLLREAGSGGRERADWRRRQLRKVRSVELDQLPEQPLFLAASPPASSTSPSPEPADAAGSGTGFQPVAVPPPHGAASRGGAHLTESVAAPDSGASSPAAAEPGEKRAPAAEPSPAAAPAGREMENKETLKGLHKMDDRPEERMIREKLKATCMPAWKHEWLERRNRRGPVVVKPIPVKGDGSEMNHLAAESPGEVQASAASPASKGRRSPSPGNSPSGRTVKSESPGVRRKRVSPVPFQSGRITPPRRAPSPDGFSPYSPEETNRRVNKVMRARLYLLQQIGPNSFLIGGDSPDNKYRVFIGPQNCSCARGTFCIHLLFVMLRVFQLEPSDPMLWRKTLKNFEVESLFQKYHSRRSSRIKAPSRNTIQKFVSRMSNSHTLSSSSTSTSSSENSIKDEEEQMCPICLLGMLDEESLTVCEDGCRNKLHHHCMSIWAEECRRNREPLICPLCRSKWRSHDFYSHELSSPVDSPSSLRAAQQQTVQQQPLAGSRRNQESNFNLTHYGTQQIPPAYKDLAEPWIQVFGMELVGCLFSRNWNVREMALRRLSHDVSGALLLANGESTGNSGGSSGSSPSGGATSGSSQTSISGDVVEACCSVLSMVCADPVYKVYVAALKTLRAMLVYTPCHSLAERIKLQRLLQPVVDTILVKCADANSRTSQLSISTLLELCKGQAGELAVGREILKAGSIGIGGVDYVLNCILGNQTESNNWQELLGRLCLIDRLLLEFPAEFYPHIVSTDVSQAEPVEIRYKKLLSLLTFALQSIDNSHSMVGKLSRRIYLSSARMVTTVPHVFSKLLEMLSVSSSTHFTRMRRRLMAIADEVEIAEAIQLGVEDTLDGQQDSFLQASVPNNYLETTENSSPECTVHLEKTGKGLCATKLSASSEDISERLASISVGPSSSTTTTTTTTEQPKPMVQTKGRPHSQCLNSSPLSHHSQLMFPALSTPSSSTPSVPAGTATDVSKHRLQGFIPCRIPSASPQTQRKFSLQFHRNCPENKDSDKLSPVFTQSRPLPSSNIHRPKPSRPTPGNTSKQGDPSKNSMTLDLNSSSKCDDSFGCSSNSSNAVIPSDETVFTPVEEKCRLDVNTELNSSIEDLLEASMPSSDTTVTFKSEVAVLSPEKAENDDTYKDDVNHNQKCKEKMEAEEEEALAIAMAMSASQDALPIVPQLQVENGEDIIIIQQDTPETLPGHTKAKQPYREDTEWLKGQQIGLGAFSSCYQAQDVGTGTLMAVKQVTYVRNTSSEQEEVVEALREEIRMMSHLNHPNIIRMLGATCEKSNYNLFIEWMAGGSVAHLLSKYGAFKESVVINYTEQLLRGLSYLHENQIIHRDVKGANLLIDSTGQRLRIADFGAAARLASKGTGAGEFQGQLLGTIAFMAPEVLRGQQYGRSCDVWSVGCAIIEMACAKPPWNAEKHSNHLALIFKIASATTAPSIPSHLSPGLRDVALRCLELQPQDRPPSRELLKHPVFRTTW
Tyrosine-protein kinase Yes (Homo sapiens), sequence (P07947 2-543 limits assumed): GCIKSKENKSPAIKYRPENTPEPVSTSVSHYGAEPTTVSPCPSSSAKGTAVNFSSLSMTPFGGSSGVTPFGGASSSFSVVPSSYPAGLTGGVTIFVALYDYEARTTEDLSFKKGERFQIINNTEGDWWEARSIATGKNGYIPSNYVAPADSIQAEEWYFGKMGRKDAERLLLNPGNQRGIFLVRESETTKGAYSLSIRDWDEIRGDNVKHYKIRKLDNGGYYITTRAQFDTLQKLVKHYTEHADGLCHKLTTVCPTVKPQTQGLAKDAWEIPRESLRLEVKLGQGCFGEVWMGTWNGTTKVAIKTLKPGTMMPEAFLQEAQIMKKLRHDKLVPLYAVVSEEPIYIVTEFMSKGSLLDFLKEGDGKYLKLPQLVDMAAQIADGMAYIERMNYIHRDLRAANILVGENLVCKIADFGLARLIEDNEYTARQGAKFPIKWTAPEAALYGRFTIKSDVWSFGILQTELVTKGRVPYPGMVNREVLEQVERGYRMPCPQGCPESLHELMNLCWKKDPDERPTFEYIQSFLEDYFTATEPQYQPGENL
Serine/threonine-protein kinase D1 (Homo sapiens), sequence (Q15139 whole entry, the tested form may be a part): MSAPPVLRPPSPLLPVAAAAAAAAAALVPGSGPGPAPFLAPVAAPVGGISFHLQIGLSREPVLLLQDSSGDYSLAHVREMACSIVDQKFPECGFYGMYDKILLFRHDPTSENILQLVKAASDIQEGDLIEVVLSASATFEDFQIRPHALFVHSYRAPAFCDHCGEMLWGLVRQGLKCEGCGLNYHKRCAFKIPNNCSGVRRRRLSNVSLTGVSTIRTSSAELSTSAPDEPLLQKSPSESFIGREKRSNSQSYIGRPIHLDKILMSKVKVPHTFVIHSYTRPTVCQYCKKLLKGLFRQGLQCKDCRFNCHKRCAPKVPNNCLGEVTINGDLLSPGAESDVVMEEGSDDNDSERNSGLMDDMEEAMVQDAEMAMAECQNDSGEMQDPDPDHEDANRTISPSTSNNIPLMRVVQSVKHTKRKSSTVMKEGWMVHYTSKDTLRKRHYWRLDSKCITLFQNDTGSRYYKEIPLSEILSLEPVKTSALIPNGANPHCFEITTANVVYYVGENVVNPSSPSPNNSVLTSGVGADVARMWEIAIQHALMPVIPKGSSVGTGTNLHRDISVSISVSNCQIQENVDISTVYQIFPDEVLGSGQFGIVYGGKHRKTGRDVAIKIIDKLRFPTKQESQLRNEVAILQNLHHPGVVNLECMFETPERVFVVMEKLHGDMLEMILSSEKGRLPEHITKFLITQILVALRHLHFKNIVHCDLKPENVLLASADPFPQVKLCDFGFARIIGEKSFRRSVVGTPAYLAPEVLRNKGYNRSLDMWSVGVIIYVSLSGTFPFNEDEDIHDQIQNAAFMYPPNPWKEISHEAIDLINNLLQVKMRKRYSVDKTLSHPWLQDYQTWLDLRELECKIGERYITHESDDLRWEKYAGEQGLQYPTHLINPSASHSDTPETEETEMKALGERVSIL
Tyrosine-protein kinase ABL1 (Homo sapiens), sequence (P00519 whole entry, the tested form may be a part): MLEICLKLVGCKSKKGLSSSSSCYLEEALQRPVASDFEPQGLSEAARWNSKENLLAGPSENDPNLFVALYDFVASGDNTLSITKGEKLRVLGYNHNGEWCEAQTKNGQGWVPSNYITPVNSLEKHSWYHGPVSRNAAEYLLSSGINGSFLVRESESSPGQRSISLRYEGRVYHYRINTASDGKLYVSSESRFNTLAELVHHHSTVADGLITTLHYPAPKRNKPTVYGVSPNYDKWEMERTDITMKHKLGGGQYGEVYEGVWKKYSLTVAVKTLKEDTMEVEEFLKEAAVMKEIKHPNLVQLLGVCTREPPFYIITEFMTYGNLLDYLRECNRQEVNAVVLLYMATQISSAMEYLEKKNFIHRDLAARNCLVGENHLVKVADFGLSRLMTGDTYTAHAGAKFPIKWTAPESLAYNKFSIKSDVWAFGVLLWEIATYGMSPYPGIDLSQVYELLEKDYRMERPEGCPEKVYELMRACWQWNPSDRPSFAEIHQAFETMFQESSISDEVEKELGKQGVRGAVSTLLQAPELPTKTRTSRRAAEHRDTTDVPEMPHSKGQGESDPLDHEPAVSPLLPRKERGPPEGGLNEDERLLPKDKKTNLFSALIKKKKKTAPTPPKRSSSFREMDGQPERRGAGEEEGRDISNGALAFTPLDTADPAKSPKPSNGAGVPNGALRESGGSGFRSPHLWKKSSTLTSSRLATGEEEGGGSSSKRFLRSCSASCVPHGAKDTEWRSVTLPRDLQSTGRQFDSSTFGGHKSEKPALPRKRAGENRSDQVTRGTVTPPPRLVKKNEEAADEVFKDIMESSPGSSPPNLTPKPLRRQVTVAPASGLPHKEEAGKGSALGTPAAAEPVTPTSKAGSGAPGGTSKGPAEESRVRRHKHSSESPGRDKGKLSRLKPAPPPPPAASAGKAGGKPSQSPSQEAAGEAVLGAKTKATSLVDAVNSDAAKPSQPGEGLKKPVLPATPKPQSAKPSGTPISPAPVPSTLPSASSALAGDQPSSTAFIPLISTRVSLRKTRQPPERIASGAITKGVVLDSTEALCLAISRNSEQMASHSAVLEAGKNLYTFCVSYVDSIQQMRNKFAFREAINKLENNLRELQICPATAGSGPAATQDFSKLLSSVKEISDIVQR
Dual specificity mitogen-activated protein kinase kinase 2 (Homo sapiens), sequence (P36507 whole entry, the tested form may be a part): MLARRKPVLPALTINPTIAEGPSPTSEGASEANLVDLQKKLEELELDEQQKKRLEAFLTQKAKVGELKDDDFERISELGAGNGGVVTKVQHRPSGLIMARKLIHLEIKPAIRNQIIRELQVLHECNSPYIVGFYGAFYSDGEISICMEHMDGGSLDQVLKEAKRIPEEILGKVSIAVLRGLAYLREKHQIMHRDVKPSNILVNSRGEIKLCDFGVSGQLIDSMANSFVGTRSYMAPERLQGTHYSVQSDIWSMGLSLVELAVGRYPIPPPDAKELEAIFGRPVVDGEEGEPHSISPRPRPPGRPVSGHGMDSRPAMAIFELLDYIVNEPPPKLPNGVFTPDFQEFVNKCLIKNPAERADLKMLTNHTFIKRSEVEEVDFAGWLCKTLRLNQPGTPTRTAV

Cc1cc(=O)c2c(O)cc(O)c([C@H]3CCN(C)C[C@H]3O)c2o1 [ROHITUKINE]
GI50 (T47D): 24 µM
Activity [1]: 90%
Activity [2]: 87%
Activity [3]: 83%
Activity [4]: 59%
Activity [5]: 82%
inhibition [6]: 75%
Activity [7]: 84%
Activity (MAP4K2): 17%
Activity [8]: 75%
solubility thermodynamic [9]: 33.4 mg/mL (≈ 109 mM)
GI50 [10]: 26 µM
Activity [11]: 53%
GI50 [12]: 30 µM
Activity [13]: 44%
Activity [14]: 92%
Activity [15]: 78%
Activity [16]: 16%
Activity [17]: 81%
Activity [18]: 57%
Activity [19]: 96%
Activity [20]: 56%
Activity [21]: 36%
GI50 [22]: 27 µM
Activity [23]: 58%
